{"source": "ChEMBL document CHEMBL1201862", "about": "“PubChem BioAssay data set” (2004)", "key": {"[1]": {"molecular_target": "Cytochrome P450 2D6 (Homo sapiens, UniProt P10635)", "sequence (P10635 whole entry)": "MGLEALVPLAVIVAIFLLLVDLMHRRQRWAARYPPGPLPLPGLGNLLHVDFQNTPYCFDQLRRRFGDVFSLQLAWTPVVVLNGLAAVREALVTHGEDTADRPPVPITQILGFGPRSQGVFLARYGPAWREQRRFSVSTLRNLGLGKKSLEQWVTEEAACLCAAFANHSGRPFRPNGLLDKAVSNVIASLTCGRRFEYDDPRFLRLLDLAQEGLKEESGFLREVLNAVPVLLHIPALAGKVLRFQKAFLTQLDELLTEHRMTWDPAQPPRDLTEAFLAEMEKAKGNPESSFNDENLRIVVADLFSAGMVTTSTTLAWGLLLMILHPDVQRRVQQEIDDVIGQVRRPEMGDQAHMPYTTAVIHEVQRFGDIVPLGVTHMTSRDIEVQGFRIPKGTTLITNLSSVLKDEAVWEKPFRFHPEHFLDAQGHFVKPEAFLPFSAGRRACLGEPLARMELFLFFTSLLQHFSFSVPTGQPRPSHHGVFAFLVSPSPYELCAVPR"}, "[2]": {"molecular_target": "Cytochrome P450 2C19 (Homo sapiens, UniProt P33261)", "sequence (P33261 whole entry)": "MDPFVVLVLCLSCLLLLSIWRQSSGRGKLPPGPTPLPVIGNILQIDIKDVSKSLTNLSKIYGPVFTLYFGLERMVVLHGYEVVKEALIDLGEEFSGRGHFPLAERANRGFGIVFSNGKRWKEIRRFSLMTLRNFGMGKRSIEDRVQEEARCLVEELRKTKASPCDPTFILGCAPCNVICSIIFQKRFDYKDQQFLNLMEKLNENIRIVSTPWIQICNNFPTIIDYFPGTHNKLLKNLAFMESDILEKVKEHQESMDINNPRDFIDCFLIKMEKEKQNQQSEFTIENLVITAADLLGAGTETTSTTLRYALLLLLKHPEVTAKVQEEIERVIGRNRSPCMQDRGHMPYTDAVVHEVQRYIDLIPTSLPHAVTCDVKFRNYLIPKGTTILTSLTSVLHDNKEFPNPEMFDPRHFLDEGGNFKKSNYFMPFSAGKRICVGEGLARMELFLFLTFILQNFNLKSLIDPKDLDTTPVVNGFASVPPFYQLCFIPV", "test": "Cytochrome panel assay with activity outcomes. Panel member name: p450-cyp2c19 Compounds with AC50 equal or less than 10 uM are considered active", "format": "functional"}, "[3]": {"molecular_target": "T1, Corticotropin-releasing factor receptor 2/Corticotropin-releasing factor-binding protein (Homo sapiens, UniProt P24387+Q13324)", "T1 sequence (Q13324 whole entry)": "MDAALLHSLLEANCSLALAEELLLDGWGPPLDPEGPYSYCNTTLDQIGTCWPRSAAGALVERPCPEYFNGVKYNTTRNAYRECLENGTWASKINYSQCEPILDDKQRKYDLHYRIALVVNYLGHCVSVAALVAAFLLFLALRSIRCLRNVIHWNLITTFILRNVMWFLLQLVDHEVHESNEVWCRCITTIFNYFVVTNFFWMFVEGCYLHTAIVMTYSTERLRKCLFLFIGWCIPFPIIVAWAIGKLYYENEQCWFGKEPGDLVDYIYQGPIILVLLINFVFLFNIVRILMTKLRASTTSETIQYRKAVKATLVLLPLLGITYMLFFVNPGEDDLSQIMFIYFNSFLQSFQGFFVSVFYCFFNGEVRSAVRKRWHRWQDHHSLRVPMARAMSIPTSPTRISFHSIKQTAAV", "T1 sequence (P24387 whole entry)": "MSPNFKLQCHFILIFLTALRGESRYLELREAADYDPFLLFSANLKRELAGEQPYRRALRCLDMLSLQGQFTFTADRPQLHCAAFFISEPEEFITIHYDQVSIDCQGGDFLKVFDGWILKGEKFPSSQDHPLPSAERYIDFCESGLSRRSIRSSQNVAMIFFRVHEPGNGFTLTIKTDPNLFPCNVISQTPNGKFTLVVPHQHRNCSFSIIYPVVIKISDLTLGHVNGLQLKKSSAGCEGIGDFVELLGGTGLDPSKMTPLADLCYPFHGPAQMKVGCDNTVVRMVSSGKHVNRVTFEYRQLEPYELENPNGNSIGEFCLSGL", "test": "activators of CRF receptor 2 with binding protein – uHTS hits, confirmation (AID 602473)", "format": "functional", "settings": "read-out: EC50_Mean"}, "[4]": {"molecular_target": "T2, Cytochrome P450 1A2 (Homo sapiens, UniProt P05177)", "T2 sequence (P05177 whole entry)": "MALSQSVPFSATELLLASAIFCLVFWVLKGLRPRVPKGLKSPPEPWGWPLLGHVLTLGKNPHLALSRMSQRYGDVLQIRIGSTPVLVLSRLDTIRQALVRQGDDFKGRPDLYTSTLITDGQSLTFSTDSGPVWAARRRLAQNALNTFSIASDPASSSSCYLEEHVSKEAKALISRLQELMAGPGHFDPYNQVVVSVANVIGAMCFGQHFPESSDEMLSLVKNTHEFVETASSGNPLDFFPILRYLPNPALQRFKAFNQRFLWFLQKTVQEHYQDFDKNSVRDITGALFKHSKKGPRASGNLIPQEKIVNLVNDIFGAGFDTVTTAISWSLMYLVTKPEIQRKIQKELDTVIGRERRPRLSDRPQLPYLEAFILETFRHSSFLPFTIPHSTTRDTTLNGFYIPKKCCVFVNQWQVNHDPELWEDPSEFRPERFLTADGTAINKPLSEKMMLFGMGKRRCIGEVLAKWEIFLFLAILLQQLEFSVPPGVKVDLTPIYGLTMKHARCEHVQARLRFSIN"}, "[5]": {"molecular_target": "T1, Corticotropin-releasing factor receptor 2/Corticotropin-releasing factor-binding protein", "test": "Dose Response confirmation of uHTS hits for small molecule antagonists of the CRF-binding protein and CRF-R2 receptor complex.", "format": "functional", "settings": "read-out: IC50_Mean"}, "[6]": {"test": "C. albicans growth with fluconazole, confirmation, fluorescence, retest (AID 2467)", "format": "functional, cell-based"}, "[7]": {"test": "NIH-3T3 fibroblast cytotoxicity, dose response, cytotoxicity control, cell-based, fluorescence, Alamar Blue, secondary assay (AID 2327);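 also: NIH-3T3 mouse fibroblasts cultured with fluconazole at 8 µg/mL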", "format": "functional"}, "[8]": {"test_system": "H4", "test": "Luminescence Cell-Based Dose Response HTS to Identify Activators of 5'UTR Stem-Loop Driven Prion Protein mRNA Translation in H4 Neuroglioblastoma Cells. [Related pubchem assays: 1829 (Project Summary), 1814 (Primary HTS)]", "format": "functional", "settings": "Homo sapiens"}, "[9]": {"test": "Luminescence Cell-Based Dose Confirmation HTS to Identify Activators of 5'UTR Stem-Loop Driven Alpha-Synuclein mRNA Translation in H4 Neuroglioblastoma Cells. [Related pubchem assays: 1829 (Project Summary), 1814 (Primary HTS)]", "format": "functional"}, "[10]": {"test": "Luminescence Cell-Based Dose Response HTS to Identify Activators of Luciferase Translation or Activity in H4 […] Cells. [Related pubchem assays: 1829 (Project Summary), 1814 (Primary HTS)]", "format": "functional"}, "[11]": {"molecular_target": "Cytochrome P450 3A4 (Homo sapiens, UniProt P08684)", "sequence (P08684 whole entry)": "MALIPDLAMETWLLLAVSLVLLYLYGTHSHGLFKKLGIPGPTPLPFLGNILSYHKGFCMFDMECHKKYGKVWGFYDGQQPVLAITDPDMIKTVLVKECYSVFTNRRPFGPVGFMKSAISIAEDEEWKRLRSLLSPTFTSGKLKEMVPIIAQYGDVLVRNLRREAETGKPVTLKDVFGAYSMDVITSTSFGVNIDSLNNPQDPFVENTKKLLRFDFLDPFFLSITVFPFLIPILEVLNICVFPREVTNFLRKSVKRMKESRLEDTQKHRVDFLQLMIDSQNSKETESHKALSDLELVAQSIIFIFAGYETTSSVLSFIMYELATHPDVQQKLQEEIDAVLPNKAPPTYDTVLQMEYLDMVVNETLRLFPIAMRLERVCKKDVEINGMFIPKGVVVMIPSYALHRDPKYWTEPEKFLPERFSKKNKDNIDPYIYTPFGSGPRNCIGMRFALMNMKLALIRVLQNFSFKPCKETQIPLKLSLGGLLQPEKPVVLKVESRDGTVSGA"}, "[12]": {"molecular_target": "Cytochrome P450 2C9 (Homo sapiens, UniProt P11712)", "sequence (P11712 whole entry)": "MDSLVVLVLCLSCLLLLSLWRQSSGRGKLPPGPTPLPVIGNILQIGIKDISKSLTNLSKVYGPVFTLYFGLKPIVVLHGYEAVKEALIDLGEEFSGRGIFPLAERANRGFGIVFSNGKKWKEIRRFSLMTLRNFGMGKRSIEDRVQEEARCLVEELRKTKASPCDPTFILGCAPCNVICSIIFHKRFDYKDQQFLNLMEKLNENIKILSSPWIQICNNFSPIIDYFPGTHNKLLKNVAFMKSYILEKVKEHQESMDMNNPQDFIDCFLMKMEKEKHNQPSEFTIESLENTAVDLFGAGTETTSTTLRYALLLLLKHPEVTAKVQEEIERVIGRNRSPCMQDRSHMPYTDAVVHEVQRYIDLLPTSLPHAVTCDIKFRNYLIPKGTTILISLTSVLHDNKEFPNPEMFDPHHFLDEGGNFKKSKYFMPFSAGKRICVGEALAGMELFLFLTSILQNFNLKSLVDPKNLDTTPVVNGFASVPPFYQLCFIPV"}}, "note": "Calls of active or inactive are those of the source. Square brackets hold non-standard residues; d marks the D form. Peptide text beside a SMILES is read from it. * marks the point of attachment. ξ: configuration not given here. Cbz = O=C(OCc1ccccc1)*; OBn = c1ccc(CO*)cc1; ξP = O=C(O)C1CCCN1"}
{"smiles": "O=C(Nc1ccccc1)C(Cc1ccccc1)NC(=O)C12CC3CC(CC(C3)C1)C2", "note": "(stereo not given)", "values": [{"measurement": "AC50", "setting": "[1]", "result": "0.00794 µM (inconclusive)"}]}
{"smiles": "O=C1[C@H]2[C@H]3[C@H](O)[C@H](O)C/C(=N/OCc4ccccc4)[C@@H]3CC[C@@H]2C(=O)N1Cc1ccc2c(c1)OCO2", "values": [{"measurement": "AC50", "setting": "[2]; read-out: AC50", "result": "3.98 µM (inconclusive)"}]}
{"smiles": "CC1(O)c2ccccc2C(=O)N1CCc1ccccc1F", "note": "(stereo not given)", "values": [{"measurement": "EC50", "setting": "[3]", "result": "> 53 µM (inactive)"}, {"measurement": "AC50", "setting": "[1]", "result": "28.2 µM (inconclusive)"}, {"measurement": "AC50", "setting": "[4]", "result": "20 µM (inconclusive)"}, {"measurement": "IC50", "setting": "[5]", "result": "> 47.1 µM (inactive)"}]}
{"smiles": "O=C(O)CS(=O)(=O)C(c1ccccc1)c1ccccc1", "values": [{"measurement": "AC50", "setting": "[2]", "result": "inconclusive"}]}
{"smiles": "COc1cccc(OCc2nc3ccccc3c(=O)n2N)c1", "values": [{"measurement": "EC50", "setting": "[6]", "result": "10.1 µM (active)"}, {"measurement": "EC50", "setting": "[7]", "result": "> 150 µM (inconclusive)"}]}
{"smiles": "CCOc1nc(NCc2ccco2)nc(Nc2ccccc2F)n1", "values": [{"measurement": "EC50", "setting": "[8]", "result": "69.9 µM (active)"}, {"measurement": "EC50", "setting": "[9]", "result": "6.54 µM (active)"}, {"measurement": "EC50", "setting": "[10]", "result": "12.9 µM (active)"}]}
{"smiles": "Cc1ccc2occ(/C=C/C(=O)O)c(=O)c2c1", "values": [{"measurement": "AC50", "setting": "[1]", "result": "15.8 µM (inconclusive)"}, {"measurement": "AC50", "setting": "[11]", "result": "22.4 µM (inconclusive)"}, {"measurement": "AC50", "setting": "[2]; read-out: AC50", "result": "28.2 µM (inconclusive)"}, {"measurement": "AC50", "setting": "[12]", "result": "25.1 µM (inconclusive)"}]}
{"smiles": "c1ccc(N2CCCC3(CCNCC3)C2)cc1", "values": [{"measurement": "AC50", "setting": "[11]", "result": "25.1 µM (inconclusive)"}, {"measurement": "AC50", "setting": "[2]; read-out: AC50", "result": "15.8 µM (inconclusive)"}]}
{"smiles": "Cc1ccc(C)c(C(=N)c2ccccc2Cc2ccccc2)c1", "values": [{"measurement": "AC50", "setting": "[1]", "result": "3.16 µM (inconclusive)"}]}
{"smiles": "COCCCn1c(SCC(=O)Nc2ccccc2F)nnc1-c1ccoc1C", "values": [{"measurement": "EC50", "setting": "[3]", "result": "> 53 µM (inactive)"}, {"measurement": "IC50", "setting": "[5]", "result": "> 47.1 µM (inactive)"}]}
{"smiles": "O=C(NNS(=O)(=O)c1ccc(Cl)cc1)NC1CCCCC1", "values": [{"measurement": "AC50", "setting": "[2]; read-out: AC50", "result": "10 µM (inconclusive)"}, {"measurement": "AC50", "setting": "[12]", "result": "17.8 µM (inconclusive)"}]}
{"smiles": "CCOC(=O)c1ccc(NC(=O)c2cccc3c2C(=O)N(CC2CCCO2)C3)cc1", "note": "(stereo not given)", "values": [{"measurement": "EC50", "setting": "[3]", "result": "> 53 µM (inactive)"}, {"measurement": "IC50", "setting": "[5]", "result": "> 47.1 µM (inactive)"}]}
{"smiles": "Nc1ccc2nc(SCc3ccc([N+](=O)[O-])cc3)sc2c1", "values": [{"measurement": "EC50", "setting": "[6]", "result": "> 38 µM (not active)"}, {"measurement": "EC50", "setting": "[7]", "result": "> 150 µM (inactive)"}]}
{"smiles": "CCN1CCN(CC(=O)N2N=CCC2c2ccccc2)CC1", "note": "(stereo not given)", "values": [{"measurement": "EC50", "setting": "[3]", "result": "> 53 µM (inactive)"}, {"measurement": "IC50", "setting": "[5]", "result": "> 47.1 µM (inactive)"}]}
{"smiles": "O=C(OCn1nnc2ccccc2c1=O)c1cccnc1", "values": [{"measurement": "AC50", "setting": "[2]; read-out: AC50", "result": "25.1 µM (inconclusive)"}, {"measurement": "AC50", "setting": "[4]", "result": "17.8 µM (inconclusive)"}, {"measurement": "AC50", "setting": "[12]", "result": "25.1 µM (inconclusive)"}]}
{"smiles": "CCC(=O)N1CCn2c1nc1ccccc12", "values": [{"measurement": "AC50", "setting": "[2]; read-out: AC50", "result": "28.2 µM (inconclusive)"}, {"measurement": "AC50", "setting": "[12]", "result": "1.41 µM (inconclusive)"}]}
{"smiles": "O=C(CC1C(=O)NCCN1C(=O)Nc1ccccc1)Nc1ccc2c(c1)OCO2", "note": "(stereo not given)", "values": [{"measurement": "EC50", "setting": "[3]", "result": "> 53 µM (inactive)"}, {"measurement": "IC50", "setting": "[5]", "result": "> 47.1 µM (inactive)"}]}
{"smiles": "CCOC(=O)c1ccccc1OCc1cc(/C=N/n2cnnc2)ccc1OC", "values": [{"measurement": "EC50", "setting": "[6]", "result": "> 38 µM (not active)"}, {"measurement": "EC50", "setting": "[7]", "result": "> 150 µM (inactive)"}, {"measurement": "AC50", "setting": "[4]", "result": "1.26 µM (inconclusive)"}]}
{"smiles": "FC(F)(F)c1nc2ccccc2nc1N/N=C\\c1ccccc1", "values": [{"measurement": "AC50", "setting": "[1]", "result": "14.1 µM (inconclusive)"}, {"measurement": "AC50", "setting": "[2]; read-out: AC50", "result": "39.8 µM (inconclusive)"}, {"measurement": "AC50", "setting": "[12]", "result": "20 µM (inconclusive)"}]}
{"smiles": "O=C(N/N=C/c1ccc(N2CCOCC2)s1)c1ccccc1Cl", "values": [{"measurement": "EC50", "setting": "[8]", "result": "48.6 µM (active)"}, {"measurement": "EC50", "setting": "[9]", "result": "20.9 µM (active)"}, {"measurement": "EC50", "setting": "[10]", "result": "12 µM (active)"}]}
{"smiles": "CCCCc1[nH]nc2c1/C(=N/O)CC(c1ccccc1)C2", "note": "(stereo not given)", "values": [{"measurement": "AC50", "setting": "[1]", "result": "14.1 µM (inconclusive)"}]}
{"smiles": "COc1ccccc1CNc1ncnc2ccc(-c3cccc(NS(C)(=O)=O)c3)cc12", "values": [{"measurement": "AC50", "setting": "[1]", "result": "20 µM (inconclusive)"}, {"measurement": "AC50", "setting": "[12]", "result": "0.794 µM (inconclusive)"}]}
{"smiles": "O=C(CNC(=O)OCc1ccccc1)NCC(=O)N1CCCC1C(=O)OCc1ccccc1", "note": "(stereo not drawn) (Cbz-Gly-Gly-[ξP]-OBn)", "values": [{"measurement": "AC50", "setting": "[11]", "result": "17.8 µM (inconclusive)"}, {"measurement": "AC50", "setting": "[2]; read-out: AC50", "result": "0.0355 µM (inconclusive)"}]}
